Assay results: patent publication US20090209937A1 (priority 2007, published 2009)
Entries after “also recorded” stand apart in the source; their conditions may differ.

Key:
fully-kindled rats = conditions: rat, in vivo
[1] = test system: fully amygdala kindled rats; conditions: rat, in vivo
Non-kindled rats = conditions: rat, in vivo
[2] = test system: amygdala and surrounding brain structures; conditions: rat, in vivo
[3] = test system: audiogenic seizure susceptible mice; conditions: mouse, in vivo; cited from earlier work

Row | Compound | adverse neurological or behavioral effects (fully-kindled rats) | increase in mean AD threshold and decreases in mean seizure stage and mean behavioral seizure duration vs vehicle (p value) [1] | kindling measures vs vehicle at later time points [1] | time course of activity after CED infusion (in words) [1] | behavioral effects of the toxin infusion (in words) (Non-kindled rats) | body weight gain (Non-kindled rats) | body weight loss (Non-kindled rats) | cumulative dose corresponding to the threshold for locomotor arrest (Non-kindled rats) | cumulative dose corresponding to the threshold for whole body tremors (Non-kindled rats) | onset of locomotor activity arrest following the infusion (Non-kindled rats) | onset of rhythmic whole body tremors following the infusion (Non-kindled rats) | persistence of tremors (Non-kindled rats) | rats exhibiting locomotor activity arrest followed by whole body tremors (Non-kindled rats) | tissue damage after repeated CED infusions (cresyl violet and silver staining) [2] | body weight increase (fully-kindled rats) | resolution of tremor (fully-kindled rats) | tremor after infusions of lower doses (fully-kindled rats) | time of maximum increase in AD threshold / maximum protective effect after CED infusion [1] | protection against seizures [3]
1 | NC(=O)N1c2ccccc2C=Cc2ccccc21 [carbamazepine] | not associated with any observable adverse neurological or behavioral effects | < 0.05 | no differences | apparent at 20 min but not at 24 h; also recorded: active at 20 min but not at 24 h | – | – | – | – | – | – | – | – | – | – | – | – | – | – | –
2 | ω-conotoxin GVIA [ω-CTX-G] | – | – | – | – | no or only mild behavioral effects | 3.0±1.8% | 10.3±0.9% | 0.013 ± 0.001 nmol | 0.027 ± 0.002 nmol | 5.0 ± 0.4 min | 10.8 ± 0.9 min | 24 h | All six | minimal damage | 0.1±2.1% | resolved by the third day after the infusion | No tremor was observed | 48 h | protected against seizures
